{"source": "patent US10799478B2", "about": "“Treatment of androgen deprivation therapy associated symptoms” (priority 2014, dated 2020)", "key": {"[1]": {"system": "ORX Wistar male rats", "experiment": "In Vivo Study to Explore Direct Antagonist Effect of Example 1 in the Presence of TE", "parameters": "species or system rat", "procedure": "Route of administration for all groups except TE is oral. TE is administered subcutaneously. At the end of 8 weeks of daily dosing, rats are euthanized, weighed & tissue harvested. Levator ani, prostates, and seminal vesicles are collected from each animal. Results are plotted as means±SE."}, "[2]": {"system": "LnCAP human prostate cancer cells", "experiment": "LnCAP Gene Expression", "assay_type": "cell-based", "details": "Homo sapiens, LNCaP"}, "[3]": {"system": "Orx rats", "experiment": "Orchidectomized Rat Assay", "assay_type": "in vivo", "details": "PTH 10 ug/Kg/d sc, once daily 2 months"}, "[4]": {"details": "ORX + TE 1 mg/kg/d (control group of Dunnett's comparison)"}, "[5]": {"details": "ORX + TE 1 mg/kg/d sc alone, 8 weeks"}}, "note": "Read-outs that look alike come from different tables or passages of the source."}
{"compound": "CCCCCCC(=O)O[C@H]1CC[C@H]2[C@@H]3CCC4=CC(=O)CC[C@]4(C)[C@H]3CC[C@]12C", "note": "[TE, testosterone enanthate, reference compound]", "values": [{"measurement": "Prostate Weights, Abs(Dif) − LSD", "setting": "[1]; [4]", "value": "−0.15"}, {"measurement": "Seminal Vesicle Wet Weights, Abs(Dif) − LSD", "setting": "[1]; [4]", "value": "−0.52"}, {"measurement": "Prostate Weight, % Sham", "setting": "[1]; [5]", "value": 45.5, "unit": "% Sham"}, {"measurement": "SV Weight, % Sham", "setting": "[1]; [5]", "value": 58.5, "unit": "% Sham"}]}
{"compound": "C[C@]1(O)CC[C@H]2[C@@H]3CCC4=CC(=O)CCC4=C3C=C[C@@]21C", "note": "[Example R1881]", "values": [{"measurement": "EC50", "setting": "[2]; AR gene, read-out: LnCAP Gene Expression EC50 (nM) AR", "value": 0.035, "unit": "nM"}, {"measurement": "EC50", "setting": "[2]; CLUSTERIN gene, read-out: LnCAP Gene Expression EC50 (nM) CLUSTERIN", "value": 0.37, "unit": "nM"}, {"measurement": "EC50", "setting": "[2]; PSA gene, read-out: LnCAP Gene Expression EC50 (nM) PSA", "value": 0.034, "unit": "nM"}]}
{"compound": "PTH: PTH (1-38) (Zeneca (Cambridge Research Biochemicals)), given sc as an injection (SVSEIQLMHNLGKHLNSMERVEWLRKKLQDVHNFVALG; Parathyroid hormone; UniProt P01270 32-69, looked up, fragment) [reference compound]", "values": [{"measurement": "SV Weight, % Sham", "setting": "[3]", "value": 5.6, "unit": "% Sham"}]}
